# Data reported in patent publication US9994905B2, “Methods for the diagnosis and treatment of pulmonary fibrosis in subjects with hermansky pudlak syndrome” (BROWN UNIVERSITY, priority 2014, dated 2018).
# Like-named read-outs stand apart in the source and are kept apart here.
# Legend:
# [1] = target: CRTH2 (Mus musculus, UniProt Q9Z2J6); conditions: intratracheal bleomycin, 30 mg/kg IP every other day, Day 5 to Day 14; for bleomycin-induced collagen accumulation: Sircol on Day 14 (FIG. 6D)
# Experimental: Sex-matched, 8-wk-old wild-type (WT), pale ear, CHI3L1^−/−, and CHI3L1Tgmice (≥5 mice/group) were exposed to a single bleomycin injection (1.25 U/kg; Teva Parenteral Medicines, Irvine, Calif.) via intratracheal administration. Mice were sacrificed and evaluated at Day 7 and Day 14 to examine apoptosis and fibrosis, respectively.
# Animals were anesthetized, median sternotomy was performed, and right heart perfusion completed with calcium and magnesium-free PBS. The heart and lungs were then removed. The right lung was frozen in liquid nitrogen and stored at −80° C. until used. Collagen content was determined by quantifying total soluble collagen using the Sircol Collagen Assay kit (Biocolor, Accurate Chemical & Scientific Co., Westbury, N.Y.) according to the manufacturer's instructions.
# Sex-matched, 8-wk-old wild-type (WT), pale ear, and CHI3L1 Tg mice (≥5 mice/group) were exposed to a single bleomycin injection (1.25 U/kg; Teva Parenteral Medicines, Irvine, Calif.) via intratracheal administration. Mice were treated with 30 mg/kg CAY10471 (Cayman Chemical) (IP, every other day) or DMSO control from Day 5 to Day 14.
# [2] = system: Primary Type II alveolar epithelial cells; assay: Bleomycin-induced apoptosis (TUNEL) in primary Type II alveolar epithelial cells; format: cell-based, mouse; conditions: 500 ng/ml pre-treatment, 100 μg/ml bleomycin (FIG. 5A)
# Experimental: End labeling of exposed 3′-OH ends of DNA fragments in paraffin-embedded tissue was undertaken with the TUNEL in situ cell death detection kit AP (Roche Diagnostics). SPC co-staining was performed using a goat anti-mouse SPC primary antibody (Santa Cruz) and Alexa Fluor 594 secondary antibody. After staining, 8-10 random pictures were obtained from each lung, and a minimum of 300 cells were visually evaluated in each section. The labeled cells were expressed as a percentage of total nuclei.
# WT and pale ear mouse lungs were digested with collagenase and DNase I. The resulting suspension was filtered through Falcon cell strainers, and the cells were negatively selected with anti-CD16/CD32 antibodies. Cells were maintained in BEGM+5% charcoal-stripped FBS and 10 ng/ml KGF. A549 cells were obtained from the American Type Culture Collection (ATCC, Manassas, Va.) and maintained in DMEM+2 mM glutamine+10% FBS. Primary Type II Cells were pre-treated with 500 ng/ml recombinant CHI3L1, transfected with IL-13Rα2 construct, and stimulated with 100 μg/ml bleomycin. In A549 cells, HPS1, HPS4, Rab32, and Rab38 siRNA were co-transfected with IL-13Rα2 construct, and stimulated with 100 μg/ml bleomycin. Cells were cytospun onto slides. Immunofluorescence and/or TUNEL staining were performed as previously described.
# Sequence of CRTH2 (Q9Z2J6 whole entry): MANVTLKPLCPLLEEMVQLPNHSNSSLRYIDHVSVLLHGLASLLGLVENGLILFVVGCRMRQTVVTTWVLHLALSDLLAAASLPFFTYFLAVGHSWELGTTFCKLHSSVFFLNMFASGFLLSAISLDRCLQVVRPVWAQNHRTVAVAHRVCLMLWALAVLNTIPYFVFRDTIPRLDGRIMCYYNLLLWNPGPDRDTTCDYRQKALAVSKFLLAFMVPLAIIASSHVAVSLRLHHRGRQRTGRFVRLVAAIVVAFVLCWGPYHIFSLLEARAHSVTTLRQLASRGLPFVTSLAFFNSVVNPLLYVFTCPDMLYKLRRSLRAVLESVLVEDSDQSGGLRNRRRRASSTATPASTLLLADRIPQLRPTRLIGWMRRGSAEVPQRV
Compound,"exaggerated fibrosis caused by CHI3L1 transgene activation during fibroproliferative repair ([1]; CHI3L1 Tg mice, Sircol on Day 14 (FIG. 6E))",bleomycin-induced collagen accumulation ([1]; HPS1 null (pale ear) mice),bleomycin-induced collagen accumulation ([1]; WT mice),bleomycin-induced apoptosis (TUNEL-positive cells) ([2]; cells from WT mice),bleomycin-induced apoptosis (TUNEL-positive cells) ([2]; cells from pale ear mice)
CN(C1CCc2c(c3ccccc3n2CC(=O)O)C1)S(=O)(=O)c1ccc(F)cc1 (centres unmarked) [CAY10471],abrogated,decreased,decreased,,
Recombinant CHI3L1: recombinant chitinase 3-like-1 protein,,,,powerful inhibitor,did not decrease
